# From US20240197728A1, “METHODS AND PHARMACEUTICAL COMPOSITIONS FOR TREATING REFRACTORY EPILEPSY” (INSERM (INSTITUT NATIONAL DE LA SANTÉ ET DE LA RECHERCHE …, priority 2021, published 2024)
# System: lithium-pilocarpine model of mTLE
# Assay: Lithium-pilocarpine mouse model of mTLE, telemetric ECoG seizure detection
# Type: in vivo, C57Bl6/J mice
# Settings: PCPZ 2 mg/kg i.p. twice daily
# Protocol: Our procedures were all approved by local ethics committee (Charles Darwin, Apafis 202008050923999 v4). 8 weeks-old male C57B16/J mice were used in a pilocarpine-based model of temporal lobe epilepsy as described. In brief, animals received an intraperitoneal (ip) injection of LiCl (423 mg/kg) and scopolamine (1 mg/kg), respectively 18-24 hours and 1 hour prior to pilocarpine. Pilocarpine (75 mg/kg) was then injected ip and mice were continuously monitored for the onset of status epilepticus (SE). In mice in which the first pilocarpine injection had not triggered SE after one hour, a second injection at 20 mg/kg was performed. SE was interrupted one hour after onset by ip injection of diazepam and ketamine (both at 10 mg/kg). […] They were monitored daily for weight, behavior and were provided with enriched liquid food (Fortimel Energy®) for the first 5-7 days post SE. […]
# ECoG probe implantation was performed 28 days post SE in all mice except for 1 mouse that was implanted prior to SE induction in order to monitor chronic seizure onset (FIG. 6D). […] One week after implantation, ECoG signal (0.3-160 Hz) were recorded continuously using a telemetric Octal Data Receiver (OpenSourceInstruments), amplified 100× and acquired at 512 Hz. Recordings were analyzed offline using Event Classification Processor ECP20 under NeuroArchiver 132. […]
smiles,measurement,setting,value
"CN1CCN(CCCN2c3ccccc3Sc3ccc(Cl)cc32)CC1 [PCPZ, prochlorperazine]",seizure frequency,"chronic phase days 40-45 post-SE, saline group 2.86±0.83",0.95±0.42 per day
same,reduction in seizure frequency compared to saline control group,days 40-45 post-SE,3 fold
